Test results taken from patent US10160747B2, “Compounds and methods for kinase modulation, and indications therefor” (Plexxikon Inc., priority 2016, dated 2018).

Assays:
BA/F3-FLT3-ITD + D835Y = target: T1, BA/F3-FLT3-ITD + D835Y (Homo sapiens, UniProt P36888, D835Y, cells depend on it, form not given); assay: Engineered BA/F3 cell growth assay, FLT3 ITD/D835Y; type: cell-based, murine; conditions: 3 d growth
T1 sequence (P36888 with tags, fused parts or gaps INS600HVDFREYEYD/D835Y): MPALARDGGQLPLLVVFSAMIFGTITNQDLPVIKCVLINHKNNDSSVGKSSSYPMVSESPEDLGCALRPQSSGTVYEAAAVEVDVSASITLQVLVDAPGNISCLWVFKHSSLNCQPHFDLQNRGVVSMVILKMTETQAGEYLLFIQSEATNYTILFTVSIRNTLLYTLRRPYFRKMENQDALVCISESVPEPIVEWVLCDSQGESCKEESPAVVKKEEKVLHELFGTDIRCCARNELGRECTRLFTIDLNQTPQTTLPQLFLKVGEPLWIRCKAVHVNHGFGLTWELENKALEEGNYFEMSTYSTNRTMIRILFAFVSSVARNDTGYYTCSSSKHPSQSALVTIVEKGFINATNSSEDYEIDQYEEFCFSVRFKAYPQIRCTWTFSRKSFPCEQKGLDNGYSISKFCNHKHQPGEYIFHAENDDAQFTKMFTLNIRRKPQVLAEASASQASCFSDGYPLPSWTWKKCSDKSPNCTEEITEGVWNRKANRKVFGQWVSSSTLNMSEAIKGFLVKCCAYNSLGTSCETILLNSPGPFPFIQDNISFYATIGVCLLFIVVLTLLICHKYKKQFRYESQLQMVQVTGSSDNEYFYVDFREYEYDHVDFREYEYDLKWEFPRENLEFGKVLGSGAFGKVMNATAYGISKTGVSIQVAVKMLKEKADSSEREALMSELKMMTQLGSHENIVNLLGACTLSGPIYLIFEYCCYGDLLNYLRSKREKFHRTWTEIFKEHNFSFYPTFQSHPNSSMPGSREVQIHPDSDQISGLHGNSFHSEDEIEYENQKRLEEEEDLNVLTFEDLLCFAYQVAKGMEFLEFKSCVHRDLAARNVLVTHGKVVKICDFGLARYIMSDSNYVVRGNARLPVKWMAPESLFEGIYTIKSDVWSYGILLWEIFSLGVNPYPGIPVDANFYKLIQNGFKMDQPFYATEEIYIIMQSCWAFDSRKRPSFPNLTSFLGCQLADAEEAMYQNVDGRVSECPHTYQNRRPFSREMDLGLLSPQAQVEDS
Method in brief: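 Murine Ba/F3 cells transfected with full-length FLT3 ITD/D835Y, grown without IL-3 so growth depends on FLT3. Seeded at 1×10^4 cells/well, 8-point 1:3 series to 1 μM top (0.2% DMSO), 3 days at 37 °C. CellTiter-Glo luminescence (ATP) versus concentration gave IC50.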

[1] = test system: MOLM-14 D835Y (endogenous FLT3 ITD and transfected FLT3 D835Y); assay: MOLM-14 D835Y cell proliferation assay (CellTiter-Glo); type: cell-based; conditions: Homo sapiens, MOLM-14, 72 h; 3 d growth, GMean
Method in brief: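 MOLM-14 derivatives carrying D835Y or F691L, selected under escalating AC220, were seeded at 1×10^4 cells/well and exposed to an 8-point 1:3 compound series (1 to 0.00046 μM, 0.2% DMSO final) for three days at 37° C., 5% CO2. CellTiter-Glo luminescence (ATP content) versus concentration gave IC50.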

| SMILES | GI50 (BA/F3-FLT3-ITD + D835Y) | IC50 [1] |
| --- | --- | --- |
| Cn1cc(Nc2ncc(-c3ccc(CC(=O)Nc4ccnc(C5CC5)c4)cc3)cn2)cn1 [Compound P-0097, N-(2-cyclopropyl-4-pyridyl)-2-[4-[2-[(1-methylpyrazol-4-yl)amino]pyrimidin-5-yl]phenyl]acetamide] | 0.0001 to 10 µM | 0.0001 to 10 µM |
| Cn1cc(Nc2ncc(-c3ccc(CC(=O)Nc4ccc(C(C)(C)C)nc4)cc3)cn2)cn1 [Compound P-0143, N-(6-tert-butyl-3-pyridyl)-2-[4-[2-[(1-methylpyrazol-4-yl)amino]pyrimidin-5-yl]phenyl]acetamide] | 0.0001 to 10 µM | 0.0001 to 10 µM |
| O=C(Cc1ccc(-c2cnc3[nH]c(-c4cnn(C(F)F)c4)cc3c2)c(F)c1)Nc1cncc(C(F)(F)F)c1 [Compound P-0197, 2-[4-[2-[1-(difluoromethyl)pyrazol-4-yl]-1H-pyrrolo[2,3-b]pyridin-5-yl]-3-fluoro-phenyl]-N-[5-(trifluoromethyl)-3-pyridyl]acetamide] | 0.0001 to 10 µM | 0.0001 to 10 µM |
| Cn1cc(Nc2ncc(-c3ccc(CC(=O)Nc4ccc(C(F)(F)F)cn4)c(F)c3)cn2)cn1 [Compound P-0106, 2-[2-fluoro-4-[2-[(1-methylpyrazol-4-yl)amino]pyrimidin-5-yl]phenyl]-N-[5-(trifluoromethyl)-2-pyridyl]acetamide] | 0.0001 to 10 µM | 0.0001 to 10 µM |
| COc1ccc(-c2cc3cc(-c4ccc(CC(=O)Nc5cncc(C(F)(F)F)c5)cc4F)cnc3[nH]2)cn1 [Compound P-0196, 2-[3-fluoro-4-[2-(6-methoxy-3-pyridyl)-1H-pyrrolo[2,3-b]pyridin-5-yl]phenyl]-N-[5-(trifluoromethyl)-3-pyridyl]acetamide] | 0.0001 to 10 µM | 0.0001 to 10 µM |
| Cn1cc(Nc2ncc(-c3ccc(CC(=O)Nc4ccc(C(C)(C)C#N)nc4)cc3)cn2)cn1 [Compound P-0146, N-[6-(1-cyano-1-methyl-ethyl)-3-pyridyl]-2-[4-[2-[(1-methylpyrazol-4-yl)amino]pyrimidin-5-yl]phenyl]acetamide] | 0.0001 to 10 µM | 0.0001 to 10 µM |
| Cn1cc(Nc2ncc(-c3ccc(CC(=O)Nc4cc(C(F)(F)F)ncn4)cc3)cn2)cn1 [Compound P-0135, 2-[4-[2-[(1-methylpyrazol-4-yl)amino]pyrimidin-5-yl]phenyl]-N-[6-(trifluoromethyl)pyrimidin-4-yl]acetamide] | 0.0001 to 10 µM | 0.0001 to 10 µM |
| O=C(Cc1ccc(-c2cnc3[nH]c(-c4ccccc4)cc3c2)cn1)Nc1ccnc(C(F)(F)F)c1 [Compound P-0005, 2-[5-(2-phenyl-1H-pyrrolo[2,3-b]pyridin-5-yl)-2-pyridyl]-N-[2-(trifluoromethyl)-4-pyridyl]acetamide] | 0.0001 to 10 µM | 0.0001 to 10 µM |
| Cc1ncc(NC(=O)Cc2ccc(-c3cnc4[nH]nc(C)c4c3)c(F)c2)cc1C(F)(F)F [Compound P-0172, 2-[3-fluoro-4-(3-methyl-1H-pyrazolo[3,4-b]pyridin-5-yl)phenyl]-N-[6-methyl-5-(trifluoromethyl)-3-pyridyl]acetamide] | 0.0001 to 10 µM | 0.0001 to 10 µM |
| Cn1cc(Nc2ncc(-c3ccc(CC(=O)NCc4cccnc4)cc3)cn2)cn1 [Compound P-0132, 2-[4-[2-[(1-methylpyrazol-4-yl)amino]pyrimidin-5-yl]phenyl]-N-(3-pyridylmethyl)acetamide] | 0.0001 to 10 µM | 0.0001 to 10 µM |
| Cn1cc(Nc2ncc(-c3ccc(CC(=O)Nc4cccc(OC(F)(F)F)c4)cc3)cn2)cn1 [Compound P-0157, 2-[4-[2-[(1-methylpyrazol-4-yl)amino]pyrimidin-5-yl]phenyl]-N-[3-(trifluoromethoxy)phenyl]acetamide] | 0.0001 to 10 µM | 0.0001 to 10 µM |
| Cn1cnc(Nc2ncc(-c3ccc(CC(=O)Nc4cc(C(C)(F)F)ccn4)cc3)cn2)c1 [Compound P-0169, N-[4-(1,1-difluoroethyl)-2-pyridyl]-2-[4-[2-[(1-methylimidazol-4-yl)amino]pyrimidin-5-yl]phenyl]acetamide] | 0.0001 to 10 µM | 0.0001 to 10 µM |
| Cn1cc(Nc2ncc(-c3ccc(CC(=O)Nc4cc(C(F)(F)F)ccn4)cc3)cn2)cn1 [Compound P-0139, 2-[4-[2-[(1-methylpyrazol-4-yl)amino]pyrimidin-5-yl]phenyl]-N-[4-(trifluoromethyl)-2-pyridyl]acetamide] | 0.0001 to 10 µM | 0.0001 to 10 µM |
| CCc1cncc(NC(=O)Cc2ccc(-c3cnc(Nc4cnn(C)c4)nc3)cc2F)c1 [Compound P-0111, N-(5-ethyl-3-pyridyl)-2-[2-fluoro-4-[2-[(1-methylpyrazol-4-yl)amino]pyrimidin-5-yl]phenyl]acetamide] | 0.0001 to 10 µM | 0.0001 to 10 µM |
| COc1nn(C[C@H](C)O)cc1Nc1ncc(-c2ccc(CC(=O)Nc3cnc(C)c(C(F)(F)F)c3)cc2)cn1 [Compound P-0180, 2-[4-[2-[[1-[(2S)-2-hydroxypropyl]-3-methoxy-pyrazol-4-yl]amino]pyrimidin-5-yl]phenyl]-N-[6-methyl-5-(trifluoromethyl)-3-pyridyl]acetamide] | 0.0001 to 10 µM | 0.0001 to 10 µM |
| Cn1cc(Nc2ncc(-c3ccc(CC(=O)Nc4cccc(C(F)(F)F)c4)cc3)cn2)cn1 [Compound P-0141, 2-[4-[2-[(1-methylpyrazol-4-yl)amino]pyrimidin-5-yl]phenyl]-N-[3-(trifluoromethyl)phenyl]acetamide] | 0.0001 to 10 µM | 0.0001 to 10 µM |
| O=C(Cc1ccc(-c2cnc3[nH]c(-c4ccc(N5CCOCC5)nc4)cc3c2)c(F)c1)Nc1cncc(C(F)(F)F)c1 [Compound P-0198, 2-[3-fluoro-4-[2-(6-morpholino-3-pyridyl)-1H-pyrrolo[2,3-b]pyridin-5-yl]phenyl]-N-[5-(trifluoromethyl)-3-pyridyl]acetamide] | 0.0001 to 10 µM | 0.0001 to 10 µM |
| Cn1cc(Nc2ncc(-c3ccc(CC(=O)Nc4cnc(F)c(C(C)(F)F)c4)cc3)cn2)cn1 [Compound P-0104, N-[5-(1,1-difluoroethyl)-6-fluoro-3-pyridyl]-2-[4-[2-[(1-methylpyrazol-4-yl)amino]pyrimidin-5-yl]phenyl]acetamide] | 0.0001 to 10 µM | 0.0001 to 10 µM |
| Cc1cc(-c2cnc3[nH]c(-c4ccccc4)cc3c2)ccc1CC(=O)Nc1cccc(C(F)(F)F)c1 [Compound P-0001, 2-[2-methyl-4-(2-phenyl-1H-pyrrolo[2,3-b]pyridin-5-yl)phenyl]-N-[3-(trifluoromethyl)phenyl]acetamide] | 0.0001 to 10 µM | 0.0001 to 10 µM |
| Cn1cc(Nc2ncc(-c3ccc(CC(=O)Nc4cncc(C(F)(F)F)c4)cc3)cn2)cn1 [Compound P-0136, 2-[4-[2-[(1-methylpyrazol-4-yl)amino]pyrimidin-5-yl]phenyl]-N-[5-(trifluoromethyl)-3-pyridyl]acetamide] | 0.0001 to 10 µM | 0.0001 to 10 µM |
| COCCn1cc(Nc2ncc(-c3ccc(CC(=O)Nc4cncc(C(F)(F)F)c4)cc3)cn2)cn1 [Compound P-0178, 2-[4-[2-[[1-(2-methoxyethyl)pyrazol-4-yl]amino]pyrimidin-5-yl]phenyl]-N-[5-(trifluoromethyl)-3-pyridyl]acetamide] | 0.0001 to 10 µM | 0.0001 to 10 µM |
| Cn1cc(Nc2ncc(-c3ccc(CC(=O)Nc4cnc(Cl)c(C(F)(F)F)c4)cc3)cn2)cn1 [Compound P-0145, N-[6-chloro-5-(trifluoromethyl)-3-pyridyl]-2-[4-[2-[(1-methylpyrazol-4-yl)amino]pyrimidin-5-yl]phenyl]acetamide] | 0.0001 to 10 µM | 0.0001 to 10 µM |
| CC(C)c1cc(NC(=O)Cc2ccc(-c3cnc(Nc4cnn(C)c4)nc3)cc2F)ccn1 [Compound P-0094, 2-[2-fluoro-4-[2-[(1-methylpyrazol-4-yl)amino]pyrimidin-5-yl]phenyl]-N-(2-isopropyl-4-pyridyl)acetamide] | 0.0001 to 10 µM | 0.0001 to 10 µM |
| Cc1ncc(NC(=O)Cc2ccc(-c3cnc(Nc4cnn(C)c4)nc3)cc2F)cc1C(F)(F)F [Compound P-0091, 2-[2-fluoro-4-[2-[(1-methylpyrazol-4-yl)amino]pyrimidin-5-yl]phenyl]-N-[6-methyl-5-(trifluoromethyl)-3-pyridyl]acetamide] | 0.0001 to 10 µM | 0.0001 to 10 µM |
